# Assay results: article PMC12586182 (Frontiers in Oncology, 2025)
# Experiments:
# SIK3 [1] = molecular target: T1, SIK3 (Homo sapiens, UniProt Q9Y2K2); assay: Competition binding assay (Eurofins DiscoverX)
# Procedure: Inhibition of MLK1 and B-RAF at K M,ATP was determined in a radiometric assay using ^32P-labeled ATP at Eurofins Cerep SA (Celle-Lévescault, France). Interaction with SIK3 was assessed in a competition binding assay at Eurofins DiscoverX LLC (San Diego, CA, USA).
# SIK3 [2] = molecular target: T1, SIK3; assay: Kinase enzyme activity assay at 1 mmol/L ATP (Carna)
# Procedure: Inhibition of MLK1 and B-RAF at K M,ATP was determined in a radiometric assay using ^32P-labeled ATP at Eurofins Cerep SA (Celle-Lévescault, France).
# [3] = molecular target: biotinylated, inactive MEK1 (Homo sapiens, UniProt Q02750); assay: biochemical
# AN3-CA = assay: Cell viability assay (ATPlite); type: cell-based, human; details: AN3-CA cell line, 72 hours incubation
# Procedure: (§1) Intracellular ATP content was used as an indirect readout of cell number using the ATPlite 1Step bioluminescence assay (Revvity, Groningen, the Netherlands). Cells were seeded in 384-well plates at an optimized density to ensure unrestricted growth and maximal signal at the end of the experiment. After 24 hours of incubation, the starting cell number was determined by adding ATPlite to each well of a control plate and recording luminescence on an Envision multimode reader (Revvity, Waltham, MA, USA) ([4]). Compounds were diluted in DMSO in √10-fold steps from 10 mmol/L stocks to obtain 9-point dilution series. After further 31.6-fold dilution in 20 mmol/L HEPES (pH 7.4), the dilution series were added in duplicate to the cells in the 384-well plates to determine the effect of the compounds on cell viability. Vehicle-treated controls were included to determine maximal cell proliferation. The final DMSO concentration was 0.4% (v/v) in all wells. After incubation for an additional 72 hours, the ATP content was measured in each well using ATPlite. The luminescent signal in inhibitor-treated wells was normalized to vehicle-treated control wells to determine the percentage viability at each concentration. Cell doublings were determined by relating the cell number of vehicle-treated controls to the starting cell number for each cell line. The viability assay of a cell line was repeated when the cell doubling deviated > 2-fold from the historic doubling as determined by multiple independent experiments. The quality of the complete assay was determined by a parallel test with doxorubicin on two cell lines. IC50 values were calculated by fitting a four-parameter logistic model to the percentage viability values using IDBS XLfit5 (IDBS, Guildford, United Kingdom). All curves were visually inspected and submitted to an F-test as implemented in IDBS XLfit5. Curves with an F-value above 1.5 were invalidated and IC50 values were maximized at the highest concentration.
# RT-4 = assay: Cell viability assay (ATPlite); type: cell-based, human; details: RT-4 cell line, 72 hours incubation
# Procedure: as §1
# KG-1 = assay: Cell viability assay (ATPlite); type: cell-based, human; details: KG-1 cell line, 72 hours incubation
# Procedure: as §1
# KATO III = assay: Cell viability assay (ATPlite); type: cell-based, human; details: KATO III cell line, 72 hours incubation
# Procedure: as §1
# T24 = assay: Cell viability assay (ATPlite); type: cell-based; details: Homo sapiens, T-24; T24 cell line, 72 hours incubation
# Outline: (§2)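 Cells grew 24 h, then received 9-point √10-fold compound series in duplicate (0.4% DMSO final) for 72 h. ATP content was read by ATPlite luminescence and normalized to vehicle controls as % viability. IC50 came from a four-parameter logistic fit; curves with F-value above 1.5 were invalidated, with IC50 then set at the top concentration.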
# MDA-MB-468 = assay: Cell viability assay (ATPlite); type: cell-based; details: Homo sapiens; MDA-MB-468 cell line, 72 hours incubation
# Outline: as §2
# 5637 = assay: Cell viability assay (ATPlite); type: cell-based; details: Homo sapiens; 5637 cell line, 72 hours incubation
# Outline: as §2
# SW872 = assay: Cell viability assay (ATPlite); type: cell-based; details: Homo sapiens; SW872 cell line, 72 hours incubation
# Outline: as §2
# MV4-11 = assay: Cell viability assay (ATPlite); type: cell-based; details: Homo sapiens; MV4-11 cell line, 72 hours incubation
# Outline: as §2
# UWB1.289 = assay: Cell viability assay (ATPlite); type: cell-based; details: Homo sapiens, UWB1289; UWB1.289 cell line, 72 hours incubation
# Outline: as §2
# HT-1080 = assay: Cell viability assay (ATPlite); type: cell-based; details: Homo sapiens; HT-1080 cell line, 72 hours incubation
# Outline: as §2
# T1 sequence (Q9Y2K2 whole entry): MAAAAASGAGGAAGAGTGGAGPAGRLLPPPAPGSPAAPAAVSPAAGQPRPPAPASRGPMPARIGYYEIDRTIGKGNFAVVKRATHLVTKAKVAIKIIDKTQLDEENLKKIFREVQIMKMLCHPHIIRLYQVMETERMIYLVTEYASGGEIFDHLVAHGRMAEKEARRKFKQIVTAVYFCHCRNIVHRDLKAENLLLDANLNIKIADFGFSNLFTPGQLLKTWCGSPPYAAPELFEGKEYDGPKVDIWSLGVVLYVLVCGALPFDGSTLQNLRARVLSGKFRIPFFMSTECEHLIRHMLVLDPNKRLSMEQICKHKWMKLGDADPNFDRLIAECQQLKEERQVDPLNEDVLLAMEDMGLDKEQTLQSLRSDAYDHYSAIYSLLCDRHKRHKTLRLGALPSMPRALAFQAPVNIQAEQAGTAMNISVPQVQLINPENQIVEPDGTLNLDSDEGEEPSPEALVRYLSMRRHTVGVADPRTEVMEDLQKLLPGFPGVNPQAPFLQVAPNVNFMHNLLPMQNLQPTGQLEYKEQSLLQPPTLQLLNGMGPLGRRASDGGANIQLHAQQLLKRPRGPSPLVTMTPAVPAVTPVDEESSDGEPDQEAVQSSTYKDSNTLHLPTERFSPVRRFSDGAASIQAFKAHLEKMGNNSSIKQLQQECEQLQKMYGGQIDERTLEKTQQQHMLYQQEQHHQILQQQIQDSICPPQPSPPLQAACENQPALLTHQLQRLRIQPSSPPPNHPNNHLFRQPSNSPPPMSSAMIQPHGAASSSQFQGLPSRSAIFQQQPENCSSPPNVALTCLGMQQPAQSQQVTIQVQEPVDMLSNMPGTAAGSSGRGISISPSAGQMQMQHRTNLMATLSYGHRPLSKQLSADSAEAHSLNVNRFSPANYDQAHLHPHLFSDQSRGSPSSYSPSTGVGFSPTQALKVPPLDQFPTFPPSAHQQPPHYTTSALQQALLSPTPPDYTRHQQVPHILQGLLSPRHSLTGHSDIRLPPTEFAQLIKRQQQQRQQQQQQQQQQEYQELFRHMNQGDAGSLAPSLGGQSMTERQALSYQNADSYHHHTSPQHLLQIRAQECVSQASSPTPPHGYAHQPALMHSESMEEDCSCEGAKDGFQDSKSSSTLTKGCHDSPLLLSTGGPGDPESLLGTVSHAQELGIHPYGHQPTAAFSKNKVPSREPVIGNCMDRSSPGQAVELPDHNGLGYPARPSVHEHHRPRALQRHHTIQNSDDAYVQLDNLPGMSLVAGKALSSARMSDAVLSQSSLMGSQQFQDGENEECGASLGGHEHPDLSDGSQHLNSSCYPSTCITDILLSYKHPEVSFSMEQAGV
# biotinylated, inactive MEK1, sequence (Q02750 whole entry): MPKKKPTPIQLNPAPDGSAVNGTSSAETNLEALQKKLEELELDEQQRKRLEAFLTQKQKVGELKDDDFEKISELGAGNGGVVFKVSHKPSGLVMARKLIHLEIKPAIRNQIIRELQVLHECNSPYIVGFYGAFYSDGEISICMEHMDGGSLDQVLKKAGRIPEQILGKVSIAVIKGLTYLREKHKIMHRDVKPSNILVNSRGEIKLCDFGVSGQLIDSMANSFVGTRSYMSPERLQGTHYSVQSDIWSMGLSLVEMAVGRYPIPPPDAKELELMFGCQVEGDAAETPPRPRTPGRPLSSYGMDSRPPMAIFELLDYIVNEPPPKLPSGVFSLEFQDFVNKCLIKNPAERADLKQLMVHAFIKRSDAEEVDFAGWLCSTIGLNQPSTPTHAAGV
compound,measurement,setting,value
O=C(c1ccc(Oc2ccccc2)cc1Cl)c1c[nH]c2ncnc(N[C@@H]3CC[C@@H](CO)OC3)c12 [nemtabrutinib],IC50,SIK3 [1],> 10 µM
same,Binding to SIK3,SIK3 [1]; competition binding assay,No binding
same,IC50,SIK3 [2],9.32 µM
same,Kd,[3],0.01 µM
same,IC50,AN3-CA,1.19 µM
same,IC50,"AN3-CA; Homo sapiens, AN3-CA, 72 h",1.1 µM
same,IC50,"RT-4; Homo sapiens, RT-4, 72 h",1.7 µM
same,IC50,RT-4,1.7 µM
same,IC50,"KG-1; Homo sapiens, KG-1, 72 h",1.4 µM
same,IC50,KG-1,1.41 µM
same,IC50,"KATO III; Homo sapiens, KATO III, 72 h",1.1 µM
same,IC50,KATO III,1.12 µM
same,IC50,T24,2.79 µM
same,IC50,MDA-MB-468,6.25 µM
same,IC50,5637,3.46 µM
same,IC50,SW872,0.666 µM
same,IC50,MV4-11,1.35 µM
same,IC50,UWB1.289,2.49 µM
same,IC50,HT-1080,4.8 µM
